Activity calls are given as the source filed them. The calls are words filed in the database; no cut-off is given here.
Legend:
[1] = target: Amyloid-beta precursor protein (Homo sapiens) (UniProt P05067); test: Inhibition of Cu2+-mediated aggregation of amyloid beta (1-42) (unknown origin) at 25 uM after 24 hrs by thioflavin T fluorescence-based fluorimetric method
[2] = Inhibition of rat serum BuChE using butyrylthiocholine iodide as substrate after 15 mins by Ellman method; format: cell-free
[3] = Antioxidant activity assessed as AAPH scavenging activity measured as trolox equivalent at 5 uM after 15 mins by ORAC-FL method relative to control; format: physicochemical; conditions: 0.25 h
Rattus norvegicus = organism: Rattus norvegicus; test: Selectivity index, ratio of IC50 for rat serum BuChE to IC50 for AChE from rat cortex homogenate; format: cell-free
Acetylcholinesterase [4] = target: Acetylcholinesterase (Electrophorus electricus, UniProt O42275); test: Inhibition of electric eel AChE using acetylthiocholine iodide as substrate after 15 mins by Ellman method
Acetylcholinesterase [5] = target: T1, Acetylcholinesterase (Rattus norvegicus, UniProt P37136); test: Inhibition of AChE from rat cortex homogenate using acetylthiocholine iodide as substrate after 15 mins by Ellman method
T1 sequence (P37136 whole entry): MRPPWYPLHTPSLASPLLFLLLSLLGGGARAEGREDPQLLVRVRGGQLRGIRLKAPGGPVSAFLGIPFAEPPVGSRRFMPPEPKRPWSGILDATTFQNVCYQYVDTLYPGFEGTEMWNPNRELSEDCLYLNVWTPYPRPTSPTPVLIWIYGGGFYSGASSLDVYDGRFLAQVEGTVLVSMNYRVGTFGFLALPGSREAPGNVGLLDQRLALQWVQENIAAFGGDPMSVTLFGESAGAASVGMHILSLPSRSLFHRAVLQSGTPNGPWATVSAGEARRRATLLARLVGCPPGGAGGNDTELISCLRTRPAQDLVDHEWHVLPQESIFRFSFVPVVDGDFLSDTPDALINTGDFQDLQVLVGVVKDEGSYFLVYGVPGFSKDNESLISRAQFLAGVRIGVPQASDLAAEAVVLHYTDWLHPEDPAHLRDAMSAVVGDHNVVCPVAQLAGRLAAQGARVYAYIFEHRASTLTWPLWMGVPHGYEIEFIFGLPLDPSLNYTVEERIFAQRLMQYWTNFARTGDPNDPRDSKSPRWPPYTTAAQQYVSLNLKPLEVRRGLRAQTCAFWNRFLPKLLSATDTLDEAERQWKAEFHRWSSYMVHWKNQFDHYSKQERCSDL

[6] = target: Amyloid-beta precursor protein (Homo sapiens) (UniProt P05067); test: Inhibition of self-mediated aggregation of amyloid beta (1-42) (unknown origin) at 25 uM after 24 hrs by thioflavin T fluorescence-based fluorimetric method
[7] = Metal chelating activity of the compound assessed as formation of copper-compound complex in methanol solution at 37.5 uM after 30 mins by UV-vis spectrometry; format: physicochemical; conditions: 0.5 h
[8] = target: Acetylcholinesterase (Electrophorus electricus) (UniProt O42275); test: Mixed-type inhibition of electric eel AChE using acetylthiocholine iodide as substrate at 0.0625 to 0.25 uM after 15 mins by Lineweaver-Burk plot method
[9] = Metal chelating activity of the compound assessed as formation of zinc-compound complex in methanol solution at 37.5 uM after 30 mins by UV-vis spectrometry; format: physicochemical; conditions: 0.5 h
[10] = Metal chelating activity of the compound assessed as formation of aluminium-compound complex in methanol solution at 37.5 uM after 30 mins by UV-vis spectrometry; format: physicochemical; conditions: 0.5 h
[11] = Metal chelating activity of the compound assessed as formation of iron-compound complex in methanol solution at 37.5 uM after 30 mins by UV-vis spectrometry; format: physicochemical; conditions: 0.5 h

Sequence of Acetylcholinesterase (Electrophorus electricus, UniProt O42275) (O42275 whole entry): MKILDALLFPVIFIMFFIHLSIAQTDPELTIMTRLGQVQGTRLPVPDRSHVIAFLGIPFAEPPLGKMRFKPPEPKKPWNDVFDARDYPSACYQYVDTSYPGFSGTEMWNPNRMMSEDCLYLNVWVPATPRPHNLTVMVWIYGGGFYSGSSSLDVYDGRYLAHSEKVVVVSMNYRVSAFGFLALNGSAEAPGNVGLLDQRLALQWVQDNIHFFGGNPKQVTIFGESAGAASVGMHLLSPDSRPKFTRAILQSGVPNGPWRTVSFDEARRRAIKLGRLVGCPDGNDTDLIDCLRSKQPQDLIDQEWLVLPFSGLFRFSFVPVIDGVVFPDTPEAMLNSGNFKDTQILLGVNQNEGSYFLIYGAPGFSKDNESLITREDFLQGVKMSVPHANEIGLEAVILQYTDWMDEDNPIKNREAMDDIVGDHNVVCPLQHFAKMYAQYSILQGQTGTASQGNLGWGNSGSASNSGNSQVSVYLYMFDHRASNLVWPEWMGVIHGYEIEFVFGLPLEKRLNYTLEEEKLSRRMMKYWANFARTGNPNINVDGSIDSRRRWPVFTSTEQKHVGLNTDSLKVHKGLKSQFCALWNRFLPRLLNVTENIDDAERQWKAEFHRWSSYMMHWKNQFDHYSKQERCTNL
Sequence of Amyloid-beta precursor protein (Homo sapiens) (P05067 whole entry): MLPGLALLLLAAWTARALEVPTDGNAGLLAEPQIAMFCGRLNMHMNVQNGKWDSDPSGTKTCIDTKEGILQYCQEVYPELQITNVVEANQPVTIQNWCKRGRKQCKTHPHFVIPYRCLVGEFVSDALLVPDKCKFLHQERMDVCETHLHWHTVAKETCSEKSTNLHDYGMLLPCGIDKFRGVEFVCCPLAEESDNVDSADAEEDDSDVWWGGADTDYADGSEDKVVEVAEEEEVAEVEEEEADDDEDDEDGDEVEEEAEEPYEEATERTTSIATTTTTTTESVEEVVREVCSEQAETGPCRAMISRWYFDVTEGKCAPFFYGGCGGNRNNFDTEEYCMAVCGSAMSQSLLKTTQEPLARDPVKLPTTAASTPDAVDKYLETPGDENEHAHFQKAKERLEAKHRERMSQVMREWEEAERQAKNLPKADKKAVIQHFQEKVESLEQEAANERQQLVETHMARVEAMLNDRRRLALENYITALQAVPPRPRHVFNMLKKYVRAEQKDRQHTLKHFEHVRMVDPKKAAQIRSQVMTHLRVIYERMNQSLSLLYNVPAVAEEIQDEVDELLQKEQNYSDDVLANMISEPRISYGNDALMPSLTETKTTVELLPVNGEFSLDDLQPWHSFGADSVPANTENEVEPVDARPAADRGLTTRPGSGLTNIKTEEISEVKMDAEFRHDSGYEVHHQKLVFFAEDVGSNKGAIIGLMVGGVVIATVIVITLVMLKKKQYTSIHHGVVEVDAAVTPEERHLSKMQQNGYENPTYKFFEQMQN
Sequence of Acetylcholinesterase (Electrophorus electricus) (O42275 24-633 limits assumed): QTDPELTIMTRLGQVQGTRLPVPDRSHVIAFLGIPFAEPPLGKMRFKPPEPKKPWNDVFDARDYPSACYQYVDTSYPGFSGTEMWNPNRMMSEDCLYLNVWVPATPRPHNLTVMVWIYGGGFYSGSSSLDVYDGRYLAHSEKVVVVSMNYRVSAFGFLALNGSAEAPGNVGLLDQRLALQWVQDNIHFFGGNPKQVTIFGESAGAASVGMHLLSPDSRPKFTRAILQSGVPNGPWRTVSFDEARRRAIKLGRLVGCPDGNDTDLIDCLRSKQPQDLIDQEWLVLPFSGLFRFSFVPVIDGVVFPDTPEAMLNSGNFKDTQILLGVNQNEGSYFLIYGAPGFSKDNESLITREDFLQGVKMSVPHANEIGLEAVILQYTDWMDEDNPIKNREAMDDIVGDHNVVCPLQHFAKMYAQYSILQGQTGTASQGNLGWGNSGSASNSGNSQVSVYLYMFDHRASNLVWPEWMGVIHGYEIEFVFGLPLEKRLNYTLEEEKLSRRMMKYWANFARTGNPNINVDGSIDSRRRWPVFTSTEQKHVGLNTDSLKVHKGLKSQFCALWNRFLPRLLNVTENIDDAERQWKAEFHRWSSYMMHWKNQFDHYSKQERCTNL

Compound | inhibition [1] [%] | IC50 [2] [µM] | fold change (FC) [3] | Ratio IC50 (Rattus norvegicus) | IC50 (Acetylcholinesterase [4]; read-out: IC50) [µM] | IC50 (Acetylcholinesterase [5]) [µM] | inhibition [6] [%] | IC50 (Acetylcholinesterase [4]) | Activity [7] | inhibition [8] | Activity [9] | Activity [10] | Activity [11]
CCN(CCCNC(=O)c1cc(=O)c2c(O)cc(OC)cc2o1)Cc1ccccc1OC | 27.2 | 197 | 0.54 | 224 | 1.85 | 0.88 | 47.9 | – | – | – | – | – | –
COc1cc(O)c2c(=O)cc(C(=O)O)oc2c1 | – | > 200 | 0.87 | – | > 200 | > 200 | – | – | – | – | – | – | –
CCN(CCCCCCNC(=O)c1cc(=O)c2c(O)cccc2o1)Cc1ccccc1OC | 55.6 | 23.2 | 0.87 | 122 | 0.53 | 0.19 | 63 | – | – | – | – | – | –
COc1ccccc1CN(C)CCCNC(=O)c1cc(=O)c2c(O)cccc2o1 | 23.8 | 102 | 1.64 | 10.7 | – | 9.51 | 50.6 | Not Active | – | – | – | – | –
COc1cc2c(cc1OC)C(=O)C(CC1CCN(Cc3ccccc3)CC1)C2 (stereo unspecified) [DONEPEZIL] | – | 20.7 | – | – | – | – | – | – | – | – | – | – | –
O=C(O)c1cc(=O)c2c(O)cc(O)cc2o1 | – | > 200 | 2.01 | – | > 200 | > 200 | – | – | – | – | – | – | –
CCN(CCCCCCNC(=O)c1cc(=O)c2c(O)cc(OC)cc2o1)Cc1ccccc1 | 42.6 | 53.5 | 0.65 | 31.5 | 1.38 | 1.7 | 28.6 | – | – | – | – | – | –
CCN(CCCCCCNC(=O)c1cc(=O)c2c(O)cc(O)cc2o1)Cc1ccccc1OC | 28.7 | > 200 | 2.25 | > 200 | 1.4 | 0.87 | 39.4 | – | – | – | – | – | –
COc1cc(O)c2c(=O)cc(C(=O)NCCCCN(C)Cc3ccccc3)oc2c1 | 35.3 | 135 | 0.79 | 17.9 | 5.86 | 7.5 | 24.4 | – | – | – | – | – | –
CCN(CCCCNC(=O)c1cc(=O)c2c(O)cc(OC)cc2o1)Cc1ccccc1 | 34.1 | 128 | 0.65 | 71 | 1.45 | 1.81 | 39 | – | – | – | – | – | –
CCN(CCCCNC(=O)c1cc(=O)c2c(O)cc(OC)cc2o1)Cc1ccccc1N(C)C | 20 | 74.1 | 0.97 | 239 | 0.92 | 0.31 | 25.6 | – | – | – | – | – | –
CCN(CCCCNC(=O)c1cc(=O)c2c(O)cc(N(C)C)cc2o1)Cc1ccccc1OC | 36.9 | 109 | 1.05 | 120 | 4.02 | 0.91 | 41.1 | – | – | – | – | – | –
CCN(CCCNC(=O)c1cc(=O)c2c(O)cccc2o1)Cc1ccccc1OC | 35.2 | 93.4 | 1.13 | 228 | 13.9 | 0.41 | 48.7 | – | – | – | – | – | –
CCN(CCCCNC(=O)c1cc(=O)c2c(O)cc(OC)cc2o1)Cc1ccc(N(C)C)cc1 | 28.8 | 57.5 | 2.2 | 7.7 | 9.05 | 7.45 | 37.1 | – | – | – | – | – | –
COc1ccccc1CN(C)CCCCNC(=O)c1cc(=O)c2c(O)cccc2o1 | 24.1 | 55 | 0.81 | 40.1 | 3.29 | 1.37 | 49.3 | – | – | – | – | – | –
COc1cc(O)c2c(=O)cc(C(=O)NCCCCCCN(C)Cc3ccccc3)oc2c1 | 37.1 | 50.1 | 1 | 16.5 | 0.25 | 3.03 | 33.5 | – | – | – | – | – | –
CCN(CCCCNC(=O)c1cc(=O)c2c(O)cc(O)cc2o1)Cc1ccccc1OC | 32.1 | 141 | 2.3 | 127 | 36.2 | 1.11 | 37.8 | – | – | – | – | – | –

Compound | inhibition [1] [%] | IC50 [2] [µM] | fold change (FC) [3] | Ratio IC50 (Rattus norvegicus) | IC50 (Acetylcholinesterase [4]; read-out: IC50) [µM] | IC50 (Acetylcholinesterase [5]) [µM] | inhibition [6] [%] | IC50 (Acetylcholinesterase [4]) | Activity [7] | inhibition [8] | Activity [9] | Activity [10] | Activity [11]
CCN(CCCCNC(=O)c1cc(=O)c2c(O)cccc2o1)Cc1ccccc1OC | 48.3 | 51.5 | 0.83 | 736 | 0.55 | 0.07 | 59.2 | – | Active | Active | Not Active | Not Active | Not Active
COc1cc(O)c2c(=O)cc(C(=O)NCCCCN3CCOc4ccccc4C3)oc2c1 | 35 | > 200 | 0.68 | – | > 200 | > 200 | 40.9 | – | – | – | – | – | –
CCN(CCCCNC(=O)c1cc(=O)c2c(O)cc(OC)cc2o1)Cc1ccccc1OC | 38.9 | 86.5 | 0.62 | 262 | 1.16 | 0.33 | 51 | – | – | – | – | – | –
CCOC(=O)c1cc(=O)c2c(O)cccc2o1 | – | > 200 | 0.78 | – | > 200 | > 200 | – | – | – | – | – | – | –
CCN(CCCCCCNC(=O)c1cc(=O)c2c(O)cc(OC)cc2o1)Cc1ccccc1OC | 52 | 49.9 | 0.76 | 217 | 0.56 | 0.23 | 58.2 | – | – | – | – | – | –
COc1cc(O)c2c(=O)cc(C(=O)NCCCN(C)Cc3ccccc3)oc2c1 | 24.3 | > 200 | 0.46 | > 13.1 | 3.12 | 15.3 | 23 | – | – | – | – | – | –
COc1cc(O)c2c(=O)cc(C(=O)NCCCN(C)Cc3ccccc3OC)oc2c1 | 28.7 | 171 | 0.93 | 42.5 | 9.8 | 4.01 | 43.6 | – | – | – | – | – | –
CCN(CCCCNC(=O)c1cc(=O)c2c(O)cc(N(C)C)cc2o1)Cc1ccccc1N(C)C | 30.7 | 149 | 1.34 | 107 | 3.53 | 1.39 | 40.8 | – | – | – | – | – | –
COc1cc(/C=C/C(=O)CC(=O)/C=C/c2ccc(O)c(OC)c2)ccc1O | 58 | – | – | – | – | – | – | – | – | – | – | – | –
CCN(CCCNC(=O)c1cc(=O)c2c(O)cc(OC)cc2o1)Cc1ccccc1 | 31.5 | 83.5 | 0.66 | 10.5 | 11.2 | 7.94 | 21.1 | – | – | – | – | – | –
COc1cc(O)c2c(=O)cc(C(=O)NCCCCN(C)Cc3ccccc3OC)oc2c1 | 36.3 | 82.1 | 0.55 | 28.3 | 3.5 | 2.9 | 47.5 | – | – | – | – | – | –
COc1cc(O)c2c(=O)cc(C(=O)NCCCCCCN(C)Cc3ccccc3OC)oc2c1 | 48.1 | 43.3 | 1.3 | 27.2 | 0.58 | 1.59 | 43.9 | – | – | – | – | – | –
CCN(CCCNC(=O)c1cc(=O)c2c(O)cc(O)cc2o1)Cc1ccccc1OC | 18.1 | > 200 | 2.1 | > 29.2 | 49.7 | 6.85 | 35.1 | – | – | – | – | – | –
C#CCN(CCCCNC(=O)c1cc(=O)c2c(O)cc(OC)cc2o1)Cc1ccccc1OC | 21.5 | 57.3 | 0.56 | 4.2 | 73 | 13.6 | 22.4 | – | – | – | – | – | –
CN(CCCNC(=O)c1cc(=O)c2c(O)cccc2o1)Cc1ccccc1 | 25.8 | 120 | 0.85 | 6.1 | 24.4 | 19.6 | 43.9 | – | – | – | – | – | –
CN(C)c1cc(O)c2c(=O)cc(C(=O)O)oc2c1 | – | > 200 | 0.95 | – | > 200 | > 200 | – | – | – | – | – | – | –
